Source: patent publication US20120178666A1 (SHIRE LLC, priority 2009, published 2012)

Columns and labels:
[1] = Prodrug stability in simulated intestinal fluid (USP); conditions: 37° C.
Description: (§1) The remaining concentrations of the prodrugs were then assayed by HPLC.

[2] = Prodrug stability in simulated gastric fluid (USP); conditions: 37° C.
Description: as §1

Row | % prodrug remaining following incubation for: 2 h in simulated intestinal fluid pH 6.8 [1] [%] | % prodrug remaining following incubation for: 1 h in simulated gastric fluid pH 1.1 [2] [%] | Compound
1 | 84 | 97 | O=C(O)CC1N=C(NC(=O)Cc2c(Cl)cccc2Cl)NC1=O (centres unmarked) [Compound 4, Guanfacine fumaryl Cyclic adduct]
2 | 98 | 81 | N=C(NC(=O)CC[C@H](NC(=O)[C@@H]1CCC(=O)N1)C(=O)O)NC(=O)Cc1c(Cl)cccc1Cl [Compound 6, (S)-Pyroglutamic acid-(S)-γ-Glutamate (Guanfacine) Amide]
3 | 66 | 79 | CNCC(=O)N[C@@H](CCC(=O)NC(=N)NC(=O)Cc1c(Cl)cccc1Cl)C(=O)O [Compound 7, Sarcosine-(S)-γ-Glutamate-Guanfacine Amide]
4 | 100 | 96 | N=C(NC(=O)Cc1c(Cl)cccc1Cl)NC(=O)NC(C(=O)O)c1ccccc1 (centres unmarked) [Compound 8, Guanfacine Phenylglycine Urea]
5 | – | 82 | N=C(NC(=O)CCNC(=O)[C@@H]1CCC(=O)N1)NC(=O)Cc1c(Cl)cccc1Cl [Compound 10, Guanfacine B-Alanine-(S)-Pyroglutamic acid Amide]
6 | 87 | 48 | CN1CC(=O)N=C1NC(=O)Cc1c(Cl)cccc1Cl [Compound 12, Cyclised Guanfacine Sarcosine Amide]
7 | – | 70 | N=C(NC(=O)Cc1c(Cl)cccc1Cl)NC(=O)O[C@@H]1CN[C@H](C(=O)O)C1 [Compound 14, (S)-4-Hydroxyproline-(Guanfacine) Carbamate]
8 | – | 83 | CC(=O)N[C@@H](COC(=O)NC(=N)NC(=O)Cc1c(Cl)cccc1Cl)C(=O)O [Compound 15, Acetyl-(S)-Serine (Guanfacine) Carbamate]
9 | 95 | 78 | N=C(NC(=O)Cc1c(Cl)cccc1Cl)NC(=O)OC[C@H](NC(=O)[C@@H]1CCC(=O)N1)C(=O)O [Compound 16, (S)-Pyroglutamic acid-(S)-Serine(Guanfacine) Carbamate]
10 | – | 74 | CC(C)[C@@H](N)C(=O)N[C@@H](COC(=O)NC(=N)NC(=O)Cc1c(Cl)cccc1Cl)C(=O)O [Compound 18, (R)-Valine-(S)-Serine(Guanfacine) Carbamate]
11 | – | 92 | C[C@@H](OC(=O)NC(=N)NC(=O)Cc1c(Cl)cccc1Cl)[C@H](NC(=O)[C@@H]1CCC(=O)N1)C(=O)O [Compound 19, (S)-Pyroglutamic acid-(S)-Threonine(Guanfacine) Carbamate]
12 | 100 | 79 | CC(C)[C@H](N)C(=O)N[C@H](C(=O)O)[C@@H](C)OC(=O)NC(=N)NC(=O)Cc1c(Cl)cccc1Cl [Compound 20, (S)-Valine-(S)-Threonine(Guanfacine) Carbamate]
13 | – | 83 | CC(C)[C@@H](N)C(=O)N[C@H](C(=O)O)[C@@H](C)OC(=O)NC(=N)NC(=O)Cc1c(Cl)cccc1Cl [Compound 21, (R)-Valine-(S)-Threonine(Guanfacine) Carbamate]
14 | 85 | – | CC(C)[C@@H](N)C(=O)NCCCC(=O)NC(=N)NC(=O)Cc1c(Cl)cccc1Cl [Compound 22, (R)-Valine aminobutanoyl Guanfacine Amide]
15 | 78 | 98 | N=C(NC(=O)CCCNC(=O)[C@@H]1CCC(=O)N1)NC(=O)Cc1c(Cl)cccc1Cl [Compound 23, Guanfacine (GABA-(S)-Pyroglutamic acid) Amide]
16 | 91 | 97 | CC(C)[C@H](N)C(=O)NCCOC(=O)NC(=N)NC(=O)Cc1c(Cl)cccc1Cl [Compound 26, Guanfacine ethanolamine-(S)-Valine Carbamate]
17 | – | 78 | CC(C)[C@@H](N)C(=O)NCCOC(=O)NC(=N)NC(=O)Cc1c(Cl)cccc1Cl [Compound 27, Guanfacine (ethanolamine-(R)-Valine) Carbamate]
18 | 99 | 80 | CC(C)[C@H](NC(=O)COC(=O)NC(=N)NC(=O)Cc1c(Cl)cccc1Cl)C(=O)O [Compound 29, Guanfacine (glycolyl-(S)-Valine) Carbamate]
19 | 160 | 77 | CC(C)[C@@H](NC(=O)COC(=O)NC(=N)NC(=O)Cc1c(Cl)cccc1Cl)C(=O)O [Compound 30, Guanfacine (glycolyl-(R)-Valine) Carbamate]

Row | % prodrug remaining following incubation for: 2 h in simulated intestinal fluid pH 6.8 [1] [%] | % prodrug remaining following incubation for: 1 h in simulated gastric fluid pH 1.1 [2] [%] | Compound
20 | 85 | 70 | CC(C)[C@@H](N)C(=O)N[C@H](CCC(=O)NC(=N)NC(=O)Cc1c(Cl)cccc1Cl)C(=O)O [Compound 31, (R)-Valine-(R)-γ-Glutamate(Guanfacine) Amide]
21 | 84 | 93 | CC(C)[C@H](N)C(=O)N[C@H](CCC(=O)NC(=N)NC(=O)Cc1c(Cl)cccc1Cl)C(=O)O [Compound 32, (S)-Valine-(R)-γ-Glutamate (Guanfacine) Amide]
22 | 99 | 79 | CC(C)[C@H](NC(=O)CC(C)(C)CC(=O)NC(=N)NC(=O)Cc1c(Cl)cccc1Cl)C(=O)O [Compound 33, Guanfacine 3,3 dimethylglutaryl (Valine) Amide]
23 | 91 | 51 | O=C1CCN=C(NC(=O)Cc2c(Cl)cccc2Cl)N1 [Compound 34, Guanfacine β Alanine Cyclic adduct]
24 | – | 83 | CC(C)[C@@H]1N=C(NC(=O)Cc2c(Cl)cccc2Cl)NC1=O [Compound 35, Guanfacine-(S)-Valine Cyclic adduct]
25 | – | 83 | NCCCC[C@@H]1N=C(NC(=O)Cc2c(Cl)cccc2Cl)NC1=O [Compound 36, Guanfacine-(S)-Lysine Cyclic adduct]
26 | 87 | 70 | NC(=O)CC[C@@H]1N=C(NC(=O)Cc2c(Cl)cccc2Cl)NC1=O [Compound 38, Guanfacine-(S)-Glutamine Cyclic adduct]
27 | – | 89 | C[C@@H]1N=C(NC(=O)Cc2c(Cl)cccc2Cl)NC1=O [Compound 39, Guanfacine-(S)-Alanine Cyclic adduct]
28 | 83 | 70 | CC(C)C[C@@H](N)C(=O)N[C@@H](CCC(=O)NC(=N)NC(=O)Cc1c(Cl)cccc1Cl)C(=O)O [Compound 42, (R)-Leucine-(S)-γ-Glutamate(Guanfacine) Amide]
29 | 85 | 62 | N=C(NC(=O)CC[C@H](NC(=O)[C@H](N)CCCCN)C(=O)O)NC(=O)Cc1c(Cl)cccc1Cl [Compound 43, Guanfacine-(S)-γ-Glutamate-(R)-Lysine Amide]
30 | 85 | 75 | CSCC[C@@H](N)C(=O)N[C@@H](CCC(=O)NC(=N)NC(=O)Cc1c(Cl)cccc1Cl)C(=O)O [Compound 44, (R)-Methionine-(S)-γ-Glutamate(Guanfacine) Amide]
31 | 91 | 74 | N=C(NC(=O)CC[C@H](NC(=O)[C@H](N)Cc1ccc(O)cc1)C(=O)O)NC(=O)Cc1c(Cl)cccc1Cl [Compound 45, Guanfacine-(S)-γ-Glutamate-(R)-Tyrosine Amide]
32 | – | 87 | N=C(NC(=O)Cc1c(Cl)cccc1Cl)NC(=O)OCCNC(=O)CN [Compound 49, Guanfacine (ethanolamine Glycine) Carbamate]
33 | – | 80 | C[C@H]1N=C(NC(=O)Cc2c(Cl)cccc2Cl)NC1=O [Compound 51, Guanfacine-(R)-Alanine Cyclic adduct]
34 | 100 | – | N=C(NC(=O)Cc1c(Cl)cccc1Cl)NC(=O)Nc1ccc(C(=O)O)cc1 [Compound 53, Guanfacine PABA Urea]
35 | – | 70 | CC(C)[C@H](N)C(=O)NCCCC(=O)NC(=N)NC(=O)Cc1c(Cl)cccc1Cl [Compound 56, Guanfacine (GABA-(S)-Valine) Amide]
36 | – | 81 | N=C(NC(=O)CCCNC(=O)CC[C@H](N)C(=O)O)NC(=O)Cc1c(Cl)cccc1Cl [Compound 57, Guanfacine (GABA-(S)-Glutamate) Amide]
37 | – | 86 | CNCC(=O)N[C@@H](CCOC(=O)NC(=N)NC(=O)Cc1c(Cl)cccc1Cl)C(=O)O [Compound 66, Sarcosine-(S)-Homoserine (Guanfacine) Carbamate]

Row | Compound | % prodrug remaining following incubation for: 2 h in simulated intestinal fluid pH 6.8 [1] [%] | % prodrug remaining following incubation for: 1 h in simulated gastric fluid pH 1.1 [2] [%]
38 | N=C(NC(=O)Cc1c(Cl)cccc1Cl)NC(=O)Oc1ccc(C[C@H](N)C(=O)O)cc1 [Compound 13, (S)-Tyrosine-(Guanfa ine) Carbamate] | 81 | 74
